Assay results from ChEMBL document CHEMBL4011659, “Combining Elements from Two Antagonists of Formyl Peptide Receptor 2 Generates More Potent Peptidomimetic Antagonists” (J Med Chem, 2017).
Calls of active or inactive are those of the source. The calls are words filed in the database; no cut-off is given here. Peptide text beside a SMILES is read from it. * marks the point of attachment. RhodamineB = CCN(CC)c1ccc2c(-c3ccccc3C(=O)*)c3ccc(=[N+](CC)CC)cc-3oc2c1

Columns and labels:
[1] = target: T1, fMet-Leu-Phe receptor (Homo sapiens) (UniProt P21462); assay: Antagonist activity at FPR1 in human peripheral blood polymorphonuclear neutrophils assessed as inhibition of fMLF-induced ROS production at <500 nM preincubated for 5 mins followed fMLF stimulation by isoluminol/HRP-based chemiluminescence assay
T1 sequence (whole entry): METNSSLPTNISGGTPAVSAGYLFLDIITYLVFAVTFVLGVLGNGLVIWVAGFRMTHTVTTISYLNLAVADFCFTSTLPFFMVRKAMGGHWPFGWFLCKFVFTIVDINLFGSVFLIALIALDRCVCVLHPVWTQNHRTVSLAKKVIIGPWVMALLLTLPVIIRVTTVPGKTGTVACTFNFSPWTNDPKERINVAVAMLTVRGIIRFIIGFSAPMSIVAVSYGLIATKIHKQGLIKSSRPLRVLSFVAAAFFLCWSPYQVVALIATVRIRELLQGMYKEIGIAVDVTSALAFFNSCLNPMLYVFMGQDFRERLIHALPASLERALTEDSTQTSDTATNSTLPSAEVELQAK

[2] = target: T2, N-formyl peptide receptor 2 (Homo sapiens) (UniProt P25090); assay: Antagonist activity at FPR2 in human peripheral blood polymorphonuclear neutrophils assessed as inhibition of WKYMVM-peptide induced ROS production at <500 nM preincubated for 5 mins followed WKYMVM-peptide stimulation by isoluminol/HRP-based chemiluminescence assay
T2 sequence (whole entry): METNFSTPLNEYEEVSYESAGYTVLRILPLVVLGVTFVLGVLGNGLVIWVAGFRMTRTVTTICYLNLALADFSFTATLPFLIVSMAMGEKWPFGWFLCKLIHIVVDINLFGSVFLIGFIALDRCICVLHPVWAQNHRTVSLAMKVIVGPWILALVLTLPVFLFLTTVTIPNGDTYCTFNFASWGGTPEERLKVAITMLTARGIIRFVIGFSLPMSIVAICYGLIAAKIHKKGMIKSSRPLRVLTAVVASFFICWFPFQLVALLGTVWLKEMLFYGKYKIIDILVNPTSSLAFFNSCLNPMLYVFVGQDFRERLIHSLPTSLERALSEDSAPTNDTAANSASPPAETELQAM

[3] = target: T3, N-formyl peptide receptor 2 (Homo sapiens, UniProt P25090); assay: Antagonist activity at FPR2 in human peripheral blood polymorphonuclear neutrophils assessed as inhibition of WKYMVM-peptide induced ROS production preincubated for 5 mins followed WKYMVM-peptide stimulation by isoluminol/HRP-based chemiluminescence assay
T3 sequence (P25090 whole entry): T2 sequence (whole entry)

Neutrophil = assay: Inhibition of PMA-induced superoxide production in human peripheral blood polymorphonuclear neutrophils at 500 nM preincubated for 5 mins followed PMA stimulation by isoluminol/HRP-based chemiluminescence assay; assay type: functional, cell-based
[4] = target: T1, fMet-Leu-Phe receptor (Homo sapiens); assay: Antagonist activity at FPR1 in human peripheral blood polymorphonuclear neutrophils assessed as inhibition of fMLF-induced ROS production at >= 1 uM preincubated for 5 mins followed by fMLF stimulation by isoluminol/HRP-based chemiluminescence assay
[5] = target: T3, N-formyl peptide receptor 2; assay: Antagonist activity at FPR2 in human peripheral blood polymorphonuclear neutrophils assessed as inhibition of WKYMVM-peptide induced ROS production preincubated for 5 mins followed WKYMVM-peptide stimulation measured up to 20 mins by isoluminol-based chemiluminescence assay

Row | inhibition [1] | IC50 [3] [nM] | SMILES | other results
1 | inactive |  | CCN(CC)c1ccc2c(-c3ccccc3C(=O)N[C@@H](CCCCN)C(=O)N[C@@H](Cc3ccccc3)C(=O)N[C@@H](CCCCN)C(=O)N[C@@H](Cc3ccccc3)C(=O)N[C@@H](CCCCN)C(=O)N[C@@H](Cc3ccccc3)C(=O)N[C@@H](CCCCN)C(=O)N[C@@H](Cc3ccccc3)C(=O)N[C@@H](CCCCN)C(=O)N[C@@H](Cc3ccccc3)C(=O)N[C@@H](CCCCN)C(=O)N[C@@H](Cc3ccccc3)C(N)=O)c3ccc(=[N+](CC)CC)cc-3oc2c1 (RhodamineB-KFKFKFKFKFKF-NH2) | inhibition [2]: inactive
2 | inactive | 24 | CCN(CC)c1ccc2c(-c3ccccc3C(=O)N[C@@H](CCCCN)C(=O)N(CCC(=O)N[C@@H](CCCCN)C(=O)N(CCC(=O)N[C@@H](CCCCN)C(=O)N(CCC(=O)N[C@@H](CCCCN)C(=O)N(CCC(=O)N[C@@H](CCCCN)C(=O)N(CCC(=O)N[C@@H](CCCCN)C(=O)N(CCC(N)=O)Cc3ccc(C)cc3)Cc3ccc(C)cc3)Cc3ccc(C)cc3)Cc3ccc(C)cc3)Cc3ccc(C)cc3)Cc3ccc(C)cc3)c3ccc(=[N+](CC)CC)cc-3oc2c1 | 
3 | inactive | 10 | CCN(CC)c1ccc2c(-c3ccccc3C(=O)N[C@@H](CCCCN)C(=O)N(CCC(=O)N[C@@H](CCCCN)C(=O)N(CCC(=O)N[C@@H](CCCCN)C(=O)N(CCC(=O)N[C@@H](CCCCN)C(=O)N(CCC(=O)N[C@@H](CCCCN)C(=O)N(CCC(=O)N[C@@H](CCCCN)C(=O)N(CCC(N)=O)Cc3ccc(F)cc3)Cc3ccc(F)cc3)Cc3ccc(F)cc3)Cc3ccc(F)cc3)Cc3ccc(F)cc3)Cc3ccc(F)cc3)c3ccc(=[N+](CC)CC)cc-3oc2c1 | inhibition (Neutrophil): Active
4 | inactive | 13 | CCN(CC)c1ccc2c(-c3ccccc3C(=O)N[C@@H](CCCCN)C(=O)N(CCC(=O)N[C@@H](CCCCN)C(=O)N(CCC(=O)N[C@@H](CCCCN)C(=O)N(CCC(=O)N[C@@H](CCCCN)C(=O)N(CCC(N)=O)Cc3ccccc3)Cc3ccccc3)Cc3ccccc3)Cc3ccccc3)c3ccc(=[N+](CC)CC)cc-3oc2c1 | 
5 | inactive | 53 | CCN(CC)c1ccc2c(-c3ccccc3C(=O)N[C@@H](CCCCN)C(=O)N(CCC(=O)N[C@@H](CCCCN)C(=O)N(CCC(=O)N[C@@H](CCCCN)C(=O)N(CCC(=O)N[C@@H](CCCCN)C(=O)N(CCC(=O)N[C@@H](CCCCN)C(=O)N(CCC(=O)N[C@@H](CCCCN)C(=O)N(CCC(N)=O)Cc3cc(F)c(F)c(F)c3)Cc3cc(F)c(F)c(F)c3)Cc3cc(F)c(F)c(F)c3)Cc3cc(F)c(F)c(F)c3)Cc3cc(F)c(F)c(F)c3)Cc3cc(F)c(F)c(F)c3)c3ccc(=[N+](CC)CC)cc-3oc2c1 | 
6 |  | 1120 | CCCCCCCCCCCCCCCC(=O)N[C@H](CCC(N)=O)C(=O)N[C@H](CCCNC(=N)N)C(=O)N[C@H](CC(C)C)C(=O)N[C@H](Cc1ccccc1)C(=O)N[C@H](CCC(N)=O)C(=O)N[C@@H](C(=O)N[C@H](CCCCN)C(=O)NCC(=O)N[C@H](CCCNC(=N)N)C(=O)N[C@H](CCCNC(=N)N)C(N)=O)C(C)C | inhibition [4]: Active
7 | inactive | 35 | CCN(CC)c1ccc2c(-c3ccccc3C(=O)N[C@@H](CCCCN)C(=O)N(CCC(=O)N[C@@H](CCCCN)C(=O)N(CCC(=O)N[C@@H](CCCCN)C(=O)N(CCC(=O)N[C@@H](CCCCN)C(=O)N(CCC(=O)N[C@@H](CCCCN)C(=O)N(CCC(=O)N[C@@H](CCCCN)C(=O)N(CCC(=O)N[C@@H](CCCCN)C(=O)N(CCC(N)=O)Cc3ccccc3)Cc3ccccc3)Cc3ccccc3)Cc3ccccc3)Cc3ccccc3)Cc3ccccc3)Cc3ccccc3)c3ccc(=[N+](CC)CC)cc-3oc2c1 | 
8 | inactive | 34 | CCN(CC)c1ccc2c(-c3ccccc3C(=O)N[C@@H](CCCCN)C(=O)N(CCC(=O)N[C@@H](CCCCN)C(=O)N(CCC(=O)N[C@@H](CCCCN)C(=O)N(CCC(=O)N[C@@H](CCCCN)C(=O)N(CCC(=O)N[C@@H](CCCCN)C(=O)N(CCC(=O)N[C@@H](CCCCN)C(=O)N(CCC(N)=O)[C@@H](C)c3ccccc3)[C@@H](C)c3ccccc3)[C@@H](C)c3ccccc3)[C@@H](C)c3ccccc3)[C@@H](C)c3ccccc3)[C@@H](C)c3ccccc3)c3ccc(=[N+](CC)CC)cc-3oc2c1 | 
9 | inactive |  | CCN(CC)c1ccc2c(-c3ccccc3C(=O)N[C@H](CCC(N)=O)C(=O)N[C@H](CCCNC(=N)N)C(=O)N[C@H](CC(C)C)C(=O)N[C@H](Cc3ccccc3)C(=O)N[C@H](CCC(N)=O)C(=O)N[C@@H](C(=O)N[C@H](CCCCN)C(=O)NCC(=O)N[C@H](CCCNC(=N)N)C(=O)N[C@H](CCCNC(=N)N)C(N)=O)C(C)C)c3ccc(=[N+](CC)CC)cc-3oc2c1 | inhibition [2]: inactive
10 | inactive | 28 | CCN(CC)c1ccc2c(-c3ccccc3C(=O)N[C@@H](CCCCN)C(=O)N(CCC(=O)N[C@@H](CCCCN)C(=O)N(CCC(=O)N[C@@H](CCCCN)C(=O)N(CCC(N)=O)Cc3ccccc3)Cc3ccccc3)Cc3ccccc3)c3ccc(=[N+](CC)CC)cc-3oc2c1 | 
11 | inactive |  | CCCCCCCCCCCCCCCC(=O)N[C@@H](CCCCN)C(=O)N(CCC(=O)N[C@@H](CCCCN)C(=O)N(CCC(=O)N[C@@H](CCCCN)C(=O)N(CCC(=O)N[C@@H](CCCCN)C(=O)N(CCC(=O)N[C@@H](CCCCN)C(=O)N(CCC(=O)N[C@@H](CCCCN)C(=O)N(CCC(N)=O)[C@@H](C)c1ccccc1)[C@@H](C)c1ccccc1)[C@@H](C)c1ccccc1)[C@@H](C)c1ccccc1)[C@@H](C)c1ccccc1)[C@@H](C)c1ccccc1 | IC50 [5]: 41 nM
12 | inactive | 273 | CCN(CC)c1ccc2c(-c3ccccc3C(=O)N[C@@H](CCCCN)C(=O)N(CCC(=O)N[C@@H](CCCCN)C(=O)N(CCC(N)=O)Cc3ccccc3)Cc3ccccc3)c3ccc(=[N+](CC)CC)cc-3oc2c1 | 
13 | inactive | 759 | CCN(CC)c1ccc2c(-c3ccccc3C(=O)N[C@@H](CCCCN)C(=O)N(CCC(N)=O)Cc3ccccc3)c3ccc(=[N+](CC)CC)cc-3oc2c1 | 
14 | inactive | 44 | CCN(CC)c1ccc2c(-c3ccccc3C(=O)N[C@@H](CCCCN)C(=O)N(CCC(=O)N[C@@H](CCCCN)C(=O)N(CCC(=O)N[C@@H](CCCCN)C(=O)N(CCC(=O)N[C@@H](CCCCN)C(=O)N(CCC(=O)N[C@@H](CCCCN)C(=O)N(CCC(=O)N[C@@H](CCCCN)C(=O)N(CCC(N)=O)[C@H](C)c3ccccc3)[C@H](C)c3ccccc3)[C@H](C)c3ccccc3)[C@H](C)c3ccccc3)[C@H](C)c3ccccc3)[C@H](C)c3ccccc3)c3ccc(=[N+](CC)CC)cc-3oc2c1 | 
15 |  | 900 | CCCCCCCCCCCCCCCC(=O)N[C@@H](CCC(N)=O)C(=O)N[C@@H](CCCNC(=N)N)C(=O)N[C@@H](CC(C)C)C(=O)N[C@@H](Cc1ccccc1)C(=O)N[C@@H](CCC(N)=O)C(=O)NC(C(=O)N[C@@H](CCCCN)C(=O)NCC(=O)N[C@@H](CCCNC(=N)N)C(=O)N[C@@H](CCCNC(=N)N)C(N)=O)C(C)C (single isomer, unassigned) | inhibition [4]: Active
16 | inactive | 41 | CCN(CC)c1ccc2c(-c3ccccc3C(=O)N[C@@H](CCCCN)C(=O)N(CCC(=O)N[C@@H](CCCCN)C(=O)N(CCC(=O)N[C@@H](CCCCN)C(=O)N(CCC(=O)N[C@@H](CCCCN)C(=O)N(CCC(=O)N[C@@H](CCCCN)C(=O)N(CCC(=O)N[C@@H](CCCCN)C(=O)N(CCC(=O)N[C@@H](CCCCN)C(=O)N(CCC(=O)N[C@@H](CCCCN)C(=O)N(CCC(N)=O)Cc3ccccc3)Cc3ccccc3)Cc3ccccc3)Cc3ccccc3)Cc3ccccc3)Cc3ccccc3)Cc3ccccc3)Cc3ccccc3)c3ccc(=[N+](CC)CC)cc-3oc2c1 | 
17 | inactive | 18 | CCN(CC)c1ccc2c(-c3ccccc3C(=O)N[C@@H](CCCCN)C(=O)N(CCC(=O)N[C@@H](CCCCN)C(=O)N(CCC(=O)N[C@@H](CCCCN)C(=O)N(CCC(=O)N[C@@H](CCCCN)C(=O)N(CCC(=O)N[C@@H](CCCCN)C(=O)N(CCC(N)=O)Cc3ccccc3)Cc3ccccc3)Cc3ccccc3)Cc3ccccc3)Cc3ccccc3)c3ccc(=[N+](CC)CC)cc-3oc2c1 | 

Row | SMILES | inhibition [1] | IC50 [3] [nM] | other results
18 | CCN(CC)c1ccc2c(-c3ccccc3C(=O)N[C@@H](CCC(N)=O)C(=O)N[C@@H](CCCNC(=N)N)C(=O)N[C@@H](CC(C)C)C(=O)N[C@@H](Cc3ccccc3)C(=O)N[C@@H](CCC(N)=O)C(=O)NC(C(=O)N[C@@H](CCCCN)C(=O)NCC(=O)N[C@@H](CCCNC(=N)N)C(=O)N[C@@H](CCCNC(=N)N)C(=O)O)C(C)C)c3ccc(=[N+](CC)CC)cc-3oc2c1 (single isomer, unassigned) | inactive |  | IC50 [5]: 60 nM
